We go through one compound from patent US12478613B2, “Selective MAO-B inhibitor DRG-MAOB-2 for use in treatment of neurodegenerative diseases” (BAHCESEHIR UNIVERSITESI, priority 2020, dated 2025).

One test addresses T1, human MAO-B (Homo sapiens, UniProt P27338).
T1 sequence (P27338 1-520): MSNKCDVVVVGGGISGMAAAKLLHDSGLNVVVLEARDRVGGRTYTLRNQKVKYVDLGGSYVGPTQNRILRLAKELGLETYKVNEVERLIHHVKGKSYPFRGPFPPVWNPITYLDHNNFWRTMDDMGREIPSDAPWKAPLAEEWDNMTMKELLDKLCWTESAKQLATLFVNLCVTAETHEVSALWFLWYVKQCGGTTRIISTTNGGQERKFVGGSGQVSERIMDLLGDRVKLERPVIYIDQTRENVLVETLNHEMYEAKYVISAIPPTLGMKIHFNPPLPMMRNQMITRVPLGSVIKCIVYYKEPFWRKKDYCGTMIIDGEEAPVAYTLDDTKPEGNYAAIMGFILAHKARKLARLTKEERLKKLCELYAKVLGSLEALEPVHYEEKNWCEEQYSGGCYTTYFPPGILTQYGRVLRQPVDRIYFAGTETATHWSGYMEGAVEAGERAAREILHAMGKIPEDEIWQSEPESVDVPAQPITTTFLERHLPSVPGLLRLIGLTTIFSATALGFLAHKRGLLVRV
As to the kind of experiment: MAO inhibitory assay (kynuramine, fluorescence), MAO-B. It is filed as biochemical. As to the method:
(§1) MAO inhibitory activity was assayed using the method of Novaroli et al. with minor modifications. Briefly, 140 μL of 0.1 M potassium phosphate buffer (pH 7.4), 8 μL of 0.75 mM kynuramine, and 2 μL of a dimethyl sulfoxide (DMSO) inhibitor solution (final DMSO concentration of 1% (v/v) and final concentrations of the inhibitors of 0-1 μM), were preincubated at 37° C. for 10 min. Diluted human recombinant enzyme (50 μL) was then added to obtain a final protein concentration of 0.0075 mg/mL (MAO-A) or 0.015 mg/mL (MAO-B) in the assay mixture. The reaction mixture was further incubated at 37° C. and the reaction was stopped after 20 min by the addition of 75 μL of 2 M NaOH. The product generated by MAO, 4-quinolinol, is fluorescent and was measured at Ex 310 nm/Em 400 nm using a microplate reader (Thermo Scientific-Multiskan GO). Each data points of samples were triplicate. The sample solution was replaced with DMSO to provide a negative control.

The target of another test is T2, human MAO-A (Homo sapiens, UniProt P21397).
T2 sequence (P21397 1-527): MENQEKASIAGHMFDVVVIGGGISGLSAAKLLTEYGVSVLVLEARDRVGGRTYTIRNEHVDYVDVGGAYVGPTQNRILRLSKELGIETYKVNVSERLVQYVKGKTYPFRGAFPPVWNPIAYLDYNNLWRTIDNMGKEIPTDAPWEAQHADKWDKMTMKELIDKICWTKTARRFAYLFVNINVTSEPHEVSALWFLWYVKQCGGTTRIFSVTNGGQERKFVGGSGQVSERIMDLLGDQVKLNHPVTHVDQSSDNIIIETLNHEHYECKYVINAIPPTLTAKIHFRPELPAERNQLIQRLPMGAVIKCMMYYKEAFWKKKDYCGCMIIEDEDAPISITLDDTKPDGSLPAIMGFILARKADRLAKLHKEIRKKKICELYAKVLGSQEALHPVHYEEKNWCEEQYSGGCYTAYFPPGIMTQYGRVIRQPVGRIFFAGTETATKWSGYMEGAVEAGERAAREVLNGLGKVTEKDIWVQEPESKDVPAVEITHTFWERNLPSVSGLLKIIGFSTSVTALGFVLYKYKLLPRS
Briefly: MAO inhibitory assay (kynuramine, fluorescence), MAO-A. The test is classed as biochemical. Conditions: human recombinant enzyme, kynuramine substrate, 37° C., pH 7.4. As to the method:
as §1

A word on the IC50: it is the concentration needed to halve the response being measured. `COc1ccc(-c2cc(C(=O)NCCn3cnc4ccccc43)n[nH]2)cc1OC` [compound of formula I]: the half-inhibitory concentration (IC50) was determined as 3.22 ± 0.02 nM on human MAO-B (human recombinant enzyme, kynuramine substrate, 37° C., pH 7.4) and 29.5 ± 1.1 nM at human MAO-A. In addition, the “fold more potent binding to MOA-B compared to MOA-A” value on human MAO-B (ratio of IC50 MAO-A / MAO-B) is reported as “approximately 9 fold”.
